In patent US20080306007A1, “AGENTS FOR PROPHYLAXIS OR TREATMENT OF NEUROLOGICAL RELATED DISEASES AND CONDITIONS” (Newcastle Innovation Limited, priority 2007, published 2008):

What was measured:
[1] = system: synaptosomes (SV exocytosis); experiment: KCl-evoked Ca2+-dependent glutamate release assay in synaptosomes; assay type: cell-based, rat; conditions: peptide preincubated 30 min; KCl stimulation
Protocol: (§1) In all SV recycling studies synaptosomes were prepared from rat cerebral cortex by centrifugation on discontinuous percoll gradients (Dunkley et al. 1986). The glutamate release assay was performed as described before (Cousin and Robinson 2000a). Data is presented as Ca^2+-dependent glutamate release, calculated as the difference between release in plus and minus Ca^2+ solutions. Penetratin peptides (Genemed Synthesis) were preincubated with the synaptosomes for 30 min before stimulation and had no effect on Ca^2+-independent release of glutamate.
A block in SV turnover cannot be ascribed to an inhibition of SVE until an effect on exocytosis has been excluded. Two independent exocytosis assays were conducted to assess this: endogenous glutamate release and FM2-10 unloading. Neither the DynI769-784AA nor DynI769-784EE peptide had any significant effect on KCl-evoked Ca^2+-dependent glutamate release (DynI769-784AA […]±8.4% of control; DynI769-784EE […]±9.5% of control, FIG. 5c). Both peptides had small effects on FM2-10 unloading evoked by 30 mM KCl (DynI769-784AA −81.1±0.8% of control; DynI769-784EE −82.3±0.6% of control, FIG. 5d). Finally, the extent of SVE inhibition by the peptides was quantified by calculating “retrieval efficiency” which takes into account prior exocytosis; a value of less than one indicating a selective SVE inhibition. […]

[2] = system: synaptosomes (SV exocytosis); experiment: FM2-10 unloading (SV exocytosis) assay in synaptosomes; assay type: cell-based, rat; conditions: evoked by 30 mM KCl; peptide preincubated 30 min before unloading
Protocol: (§2) Loading of FM2-10 (Molecular Probes) into recycling synaptosomal SVs was measured as previously described. Data is presented as Ca^2+-dependent FM2-10 unloading, which is the difference between release after loading in plus and minus Ca^2+ solutions. Where indicated, synaptosomes were preincubated with penetratin peptide for 30 min prior to stimulation of FM2-10 loading. […] The same assay was used to monitor the effect of penetratin peptide on SV exocytosis. However, in this instance, the synaptosomes were loaded with FM2-10 in plus Ca^2+ Krebs-like solution and, where indicated, were preincubated with penetratin peptide for 30 min prior to stimulation of FM2-10 unloading. Data is presented as Ca^2+-dependent FM2-10 unloading. The SV internalisation assay was performed as previously described.
A block in SV turnover cannot be ascribed to an inhibition of SVE until an effect on exocytosis has been excluded. Two independent exocytosis assays were conducted to assess this: endogenous glutamate release and FM2-10 unloading. […] Finally, the extent of SVE inhibition by the peptides was quantified by calculating “retrieval efficiency” which takes into account prior exocytosis; a value of less than one indicating a selective SVE inhibition. […]

U2OS cells = experiment: Transferrin (Tfn) endocytosis (RME) in U2OS cells; assay type: cell-based; conditions: 15 min peptide preincubation at various concentrations, Tfn 15 min at 37° C.
Protocol: Briefly, non-neuronal U2OS cells were preincubated with vehicle only or each peptide at various concentrations for 15 min. Cells were then incubated with Tfn for 15 min at 37° C., acid washed, fixed and internalized Tfn was detected by fluorescence microscopy. Quantitative analysis of endocytosis in the presence of different concentrations of the peptides is shown as mean fluorescence as a percent of fluorescence in control cells. The results shown in FIG. 11 are representative of 2 independent experiments. Endocytosis in control cells (no peptide) is expressed as 100%.

[3] = system: synaptosomes (synaptic vesicle turnover); experiment: SV turnover assay (FM2-10 loading/unloading) in synaptosomes; assay type: cell-based, rat
Protocol: as §1, §2
SVE in synaptosomes was measured to determine whether the phosphorylation sites in dynamin I play a direct role in SVE. Since isolated nerve terminals cannot be transfected with DNA, a membrane-permeable peptide strategy was employed. Mimetic peptides (DynI769-784AA (SEQ ID No. 8) and DynI769-784EE (SEQ ID No. 9)) were designed corresponding to the amino acid sequence of the dynamin I phospho-box (FIG. 5a) and were tagged with a penetratin heptapeptide RRMKWKK (SEQ ID No. 12) to facilitate their delivery into synaptosomes. Briefly, synaptosomes were preincubated in the presence or absence of either penetratin peptide (250 μM) prior to FM2-10 loading stimulated by 30 mM KCl. Accumulated FM2-10 was unloaded by another KCl stimulus (indicated by the solid bar). […] If the phosphorylation-regulated syndapin I interaction itself is essential for SVE, the penetratin-linked peptides may inhibit the process. […] The DynI769-784AA peptide (250 μM) inhibited turnover by more than 40% (57.1±2.1% of control), compared to less than 20% with the DynI769-784EE peptide (250 μM, 81.1±2.4% of control).

[4] = system: synaptosomes (SV retrieval from the plasma membrane); experiment: FM2-10 SV internalisation assay (purified SVs from synaptosomes); assay type: cell-based, rat
Protocol: as §2
If SVE was arrested before SV fission occurred, […]. SVs were purified and their fluorescence values were corrected for dye uptake in the absence of Ca^2+ (Ca^2+-dependent) and normalised to control (n=3, mean ±s.e.m.).

[5] = target: T1, endophilin I binding to DynI-PRD (Rattus norvegicus, UniProt O35179); experiment: GST-DynI-PRD pull-down with peptide competition: endophilin I; conditions: increasing amounts of peptide
T1 construct: from tissue; host or cells: target from total rat brain extract; GST-DynI-PRD made in house in Escherichia coli
Protocol: (§3) Total rat brain extract was prepared by homogenising brain tissue in ice-cold lysis buffer (1% Triton X-100, 150 mM NaCl, 25 mM Tris pH 7.4, 1 mM EDTA, 1 mM EGTA, 20 μg/ml leupeptin, 1 mM phenylmethylsulfonyl fluoride and EDTA-free Complete protease inhibitor (Roche)). The homogenate was centrifuged twice at 75,600 g for 30 min at 4° C. The supernatant was pre-cleared by addition of GSH-sepharose beads for 1 h, pelleted at 50 g for 5 min at 4° C., and the supernatant collected. GST-DynI-PRD recombinant proteins were then incubated with an equal amount of tissue lysate at 4° C. for 1 h. Beads were washed extensively with ice-cold 20 mM Tris pH 7.4 containing 1 mM EGTA, eluted in 2×SDS-PAGE sample buffer, resolved on 7.5-15% gradient SDS gels and stained with colloidal Coomassie Blue. Identification of proteins was by matrix-assisted laser desorption ionization time-of-flight mass spectrometry (MALDI-TOF MS). Some peptides were sequenced by tandem MS/MS.
(§4) A common characteristic of most binding sites for SH3 domains is the presence of the core amino acid motif PxxP, which is often followed or preceded by a basic Arg residue. There are 13 such motifs in the dynamin I PRD (numbered from site 1 at the N-terminus of the PRD at Pro-753 in dynamin I). […]

[6] = target: T2, Syndapin I binding to DynI-PRD (Rattus norvegicus, UniProt Q9Z0W5); experiment: GST-DynI-PRD pull-down from rat brain lysate with peptide competition: syndapin I; conditions: increasing amounts of peptide
T2 construct: from tissue; host or cells: target from total rat brain extract; GST-DynI-PRD made in house in Escherichia coli
Protocol: as §3, §4

[7] = target: T3, amphiphysin I binding to DynI-PRD (Rattus norvegicus, UniProt O08838); experiment: GST-DynI-PRD pull-down with peptide competition: amphiphysin I
T3 construct: it is full-length amphiphysin I being detected in the present study; from tissue; host or cells: target from total rat brain extract; GST-DynI-PRD made in house in Escherichia coli
T3 sequence (O08838 1-683): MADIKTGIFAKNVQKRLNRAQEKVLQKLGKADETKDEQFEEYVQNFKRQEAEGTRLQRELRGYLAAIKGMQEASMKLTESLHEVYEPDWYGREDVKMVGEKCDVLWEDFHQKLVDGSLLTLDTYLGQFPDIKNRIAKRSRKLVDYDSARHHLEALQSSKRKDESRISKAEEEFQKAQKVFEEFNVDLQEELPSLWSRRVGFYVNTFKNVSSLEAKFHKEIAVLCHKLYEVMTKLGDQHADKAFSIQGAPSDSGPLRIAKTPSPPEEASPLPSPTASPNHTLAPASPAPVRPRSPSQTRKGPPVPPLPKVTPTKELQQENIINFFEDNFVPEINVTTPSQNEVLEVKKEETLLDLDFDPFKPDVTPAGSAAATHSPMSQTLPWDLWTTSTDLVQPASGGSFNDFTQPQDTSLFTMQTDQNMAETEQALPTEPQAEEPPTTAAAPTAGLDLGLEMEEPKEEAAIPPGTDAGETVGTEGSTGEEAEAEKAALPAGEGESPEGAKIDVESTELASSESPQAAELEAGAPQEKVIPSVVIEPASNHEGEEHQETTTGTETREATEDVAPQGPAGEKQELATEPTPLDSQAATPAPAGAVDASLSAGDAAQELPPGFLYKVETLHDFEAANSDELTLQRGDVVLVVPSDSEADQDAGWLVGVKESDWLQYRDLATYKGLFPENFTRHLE
Protocol: as §3
A common characteristic of most binding sites for SH3 domains is the presence of the core amino acid motif PxxP, which is often followed or preceded by a basic Arg residue. […]
The binding site of amphiphysin I has previously been mapped to a single site, site 9 (FIG. 8), within the dynamin I-PRD (Grabs et al. 1997; Vallis et al. 1999). […] However, it is full-length amphiphysin I being detected in the present study. […]

[8] = system: p85 (the regulatory subunit of PI-3 kinase); experiment: GST-DynI-PRD pull-down with peptide competition: p85; assay type: binding, rat; conditions: increasing amounts of peptide
Protocol: as §3, §4

T2 sequence (Q9Z0W5 whole entry): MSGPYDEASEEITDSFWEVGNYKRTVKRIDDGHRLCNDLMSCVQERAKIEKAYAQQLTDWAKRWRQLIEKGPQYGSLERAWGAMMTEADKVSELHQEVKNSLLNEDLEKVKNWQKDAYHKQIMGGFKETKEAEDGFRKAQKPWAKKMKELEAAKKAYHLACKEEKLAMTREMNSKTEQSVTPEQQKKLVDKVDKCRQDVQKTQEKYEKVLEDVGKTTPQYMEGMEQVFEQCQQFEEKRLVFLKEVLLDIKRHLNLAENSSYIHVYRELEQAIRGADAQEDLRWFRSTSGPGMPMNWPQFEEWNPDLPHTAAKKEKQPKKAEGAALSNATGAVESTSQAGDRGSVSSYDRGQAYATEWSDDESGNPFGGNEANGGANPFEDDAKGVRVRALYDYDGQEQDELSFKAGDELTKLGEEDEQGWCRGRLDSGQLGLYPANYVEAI
T1 sequence (O35179 whole entry): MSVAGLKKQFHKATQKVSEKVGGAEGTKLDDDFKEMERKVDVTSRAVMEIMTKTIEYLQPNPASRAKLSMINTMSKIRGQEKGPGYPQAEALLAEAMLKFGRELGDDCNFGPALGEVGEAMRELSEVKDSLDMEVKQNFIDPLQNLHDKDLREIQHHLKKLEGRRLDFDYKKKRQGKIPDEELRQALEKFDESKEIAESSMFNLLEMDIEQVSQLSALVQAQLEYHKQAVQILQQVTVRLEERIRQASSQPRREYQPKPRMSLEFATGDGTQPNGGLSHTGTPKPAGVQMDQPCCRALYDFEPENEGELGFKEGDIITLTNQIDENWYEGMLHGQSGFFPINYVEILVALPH

| inhibitory effect on endophilin I binding (relative to syndapin I) [5] | peptide concentration needed to inhibit amphiphysin I binding, relative [7] | effect on amphiphysin I binding ([7]; later judged a non-specific artefact of Arg/Pro-rich peptide) | effect on binding to p85 [8] | Substance | KCl-evoked Ca2+-dependent glutamate release [1] | FM2-10 unloading [2] | endocytosis of transferrin (Tfn), RME (U2OS cells) | inhibition of SV turnover ([3]; peptide 250 μM) | SV turnover ([3]; peptide 250 μM, 30 min preincubation, FM2-10 loading with 30 mM KCl) | retrieval efficiency (SV turnover/exocytosis) ([3]; using data from either exocytosis assay, value below one = selective SVE inhibition) | inhibition of FM2-10 accumulation in SVs [4] | FM2-10 accumulation in purified SVs (Ca2+-dependent) ([4]; n=3, mean ± s.e.m.) | Syndapin I binding to DynI-PRD [6] |
| --- | --- | --- | --- | --- | --- | --- | --- | --- | --- | --- | --- | --- | --- |
| – | – | – | – | DynI769-784EE: Dynamin I phospho-box mimetic peptide (residues 769-784), EE mutant, tagged with penetratin heptapeptide RRMKWKK (RRMKWKKPAGRREPTSEPTPQRR; listed as Rattus norvegicus) | 90.2±9.5 % of control | 82.3±0.6 % of control | without effect | less than 20% | 81.1±2.4 % of control | little effect | no significant effect | 90.7±7.1 % of control | – |
| five-fold weaker inhibitory effect | 10 times higher peptide concentrations | inhibitory effect | little effect | RRAPAVPPARPGSR (listed as Rattus norvegicus) [DynI783-796, Peptide corresponding to site 2 and site 3 region of dynamin I PRD] | – | – | – | – | – | – | – | – | greatly reduced in a concentration-dependent manner |
